Assay results as given in US20260184675A1, “CHIRAL ISOMERIC SULFITE COMPOUND AND APPLICATION THEREOF” (Chengdu Hanova BioSciences Co., Ltd, priority 2024, published 2026).
Values joined by “and” are separate entries in the source; they are usually repeats but may differ in a detail not shown here. Equal entries are not always repeated.

Experiments:
Magnaporthe grisea = type: cell-based; conditions: 100 ppm; for Antifungal rate of Magnaporthe grisea (%), Replicate 1 / Antifungal rate of Magnaporthe grisea (%), Replicate 2 / Antifungal rate of Magnaporthe grisea (%), Replicate 3 / Average antifungal rate (%): 96-well plate; for Average antifungal rate (%): average of 3 replicates
[1] = system: eggs of Spodoptera litura; assay: Effect on hatching of eggs of Spodoptera litura, egg piece soaking; type: in vivo; conditions: 500 ppm; for Hatching rate (%), Replicate 1 / Hatching rate (%), Replicate 2 / Hatching rate (%), Replicate 3 / Number of unhatched larvae 4 days after insecticide delivery, Replicate 1 / Number of unhatched larvae 4 days after insecticide delivery, Replicate 2 / Number of unhatched larvae 4 days after insecticide delivery, Replicate 3: Spodoptera litura eggs; for Hatching rate (%), Replicate 1 / Hatching rate (%), Replicate 2 / Hatching rate (%), Replicate 3: 4 days after delivery; for Number of unhatched larvae 4 days after insecticide delivery, Replicate 1 / Number of unhatched larvae 4 days after insecticide delivery, Replicate 2 / Number of unhatched larvae 4 days after insecticide delivery, Replicate 3: soaked 10 minutes
In short: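 Egg pieces of about 60 eggs were soaked 10 min in test agent at 500 ppm, blotted, then held singly at 24±1 °C, 80±10% RH, 12:12 L:D. Hatched and unhatched eggs were counted on day 4 to give hatching rate and control effect; 3 replicates.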

[2] = system: pest eggs of Tetranychus cinnabarinus; assay: Effect on hatching of pest eggs of Tetranychus cinnabarinus, leaf disc method; type: in vivo; conditions: for Hatching rate (%): 7 days after insecticide delivery
In short: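 Adult female mites laid eggs on 2.0 cm Vicia faba leaf discs for up to 36 h; discs with counted eggs were dipped 10 s in compound solution or water, then kept moist. Hatched eggs were counted 7 days after treatment and control effect was calculated by formula.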

Compound | inhibitory rate against Magnaporthe grisea (in words) (Magnaporthe grisea) | Antifungal rate of Magnaporthe grisea (%), Replicate 1 (Magnaporthe grisea) [%] | Antifungal rate of Magnaporthe grisea (%), Replicate 2 (Magnaporthe grisea) [%] | Antifungal rate of Magnaporthe grisea (%), Replicate 3 (Magnaporthe grisea) [%] | Hatching rate (%) ([2]; 0.25 mg/L, Replicate 1) | Hatching rate (%) ([2]; 0.25 mg/L, Replicate 2) | Number of hatched larvae 7 days after insecticide delivery ([2]; 0.25 mg/L, Replicate 1) | Number of hatched larvae 7 days after insecticide delivery ([2]; 0.25 mg/L, Replicate 2) | Hatching rate (%) ([2]; 0.5 mg/L, Replicate 1) | Hatching rate (%) ([2]; 0.5 mg/L, Replicate 2) | Number of hatched larvae 7 days after insecticide delivery ([2]; 0.5 mg/L, Replicate 1) | Number of hatched larvae 7 days after insecticide delivery ([2]; 0.5 mg/L, Replicate 2) | Hatching rate (%) ([2]; 1 mg/L, Replicate 1) | Hatching rate (%) ([2]; 1 mg/L, Replicate 2) | Number of hatched larvae 7 days after insecticide delivery ([2]; 1 mg/L, Replicate 1) | Number of hatched larvae 7 days after insecticide delivery ([2]; 1 mg/L, Replicate 2) | Average antifungal rate (%) (Magnaporthe grisea) | also measured
CCC(COS(=O)OCCF)Oc1ccc(Cl)cc1Cl [19′-(R,R)] | strong inhibitory rate | 96.97 | 97.35 | 97.26 | 45.07 | 44.90 | 39 | 27 | 5.77 | 4.48 | 49 | 64 | 0.00 | 0.00 | 57 | 69 |  | inhibitory activity on the hatching of eggs of Spodoptera litura (in words) [1]: good inhibitory activities; Hatching rate (%), Replicate 1 ([1]; listed as 19′-(R, R)): 17.54%; Hatching rate (%), Replicate 2 ([1]; listed as 19′-(R, R)): 16.95%; Hatching rate (%), Replicate 3 ([1]; listed as 19′-(R, R)): 19.12%; Number of unhatched larvae 4 days after insecticide delivery, Replicate 1 ([1]; listed as 19′-(R, R)): 47; Number of unhatched larvae 4 days after insecticide delivery, Replicate 2 ([1]; listed as 19′-(R, R)): 49; Number of unhatched larvae 4 days after insecticide delivery, Replicate 3 ([1]; listed as 19′-(R, R)): 55; inhibitory effect on the hatching of pest eggs of Tetranychus cinnabarinus (in words) ([2]; 1 ppm): excellent inhibitory effects
CC[C@H](COS(=O)OCCF)Oc1ccc(Cl)cc1Cl (stereo partly drawn) [19′-(R,S)] | strong inhibitory rate | 85.69 | 86.41 | 86.27 | 70.31 | 71.43 | 19 | 20 | 46.48 | 44.93 | 38 | 38 | 6.00 | 6.45 | 47 | 58 | 97.19% and 86.12% | Hatching rate (%), Replicate 1 [1]: 51.67%; Hatching rate (%), Replicate 2 [1]: 50.77%; Hatching rate (%), Replicate 3 [1]: 50.00%; Number of unhatched larvae 4 days after insecticide delivery, Replicate 1 [1]: 30; Number of unhatched larvae 4 days after insecticide delivery, Replicate 2 [1]: 32; Number of unhatched larvae 4 days after insecticide delivery, Replicate 3 [1]: 27
CC[C@@H](COS(=O)OCCF)Oc1ccc(Cl)cc1Cl (stereo partly drawn) [19′-(S,R)] | strong inhibitory rate | 86.44 | 85.97 | 86.28 | 68.49 | 69.23 | 23 | 20 | 35.09 | 32.79 | 37 | 41 | 0.00 | 1.85 | 68 | 53 | 86.23% | Hatching rate (%), Replicate 1 ([1]; listed as 19′-(S, R)): 53.57%; Hatching rate (%), Replicate 2 ([1]; listed as 19′-(S, R)): 53.23%; Hatching rate (%), Replicate 3 ([1]; listed as 19′-(S, R)): 53.73%; Number of unhatched larvae 4 days after insecticide delivery, Replicate 1 ([1]; listed as 19′-(S, R)): 26; Number of unhatched larvae 4 days after insecticide delivery, Replicate 2 ([1]; listed as 19′-(S, R)): 29; Number of unhatched larvae 4 days after insecticide delivery, Replicate 3 ([1]; listed as 19′-(S, R)): 31
